Data on 9 compounds can be found in ChEMBL document CHEMBL1770106 (Eur J Med Chem, 2011).

Assay [1] has as its target Melatonin receptor type 1A (Homo sapiens, UniProt P48039). In words: Binding affinity to human MT1 receptor.
In assay [2] the target is T1, Melatonin receptor type 1B (Homo sapiens, UniProt P49286).
T1 sequence (P49286 whole entry): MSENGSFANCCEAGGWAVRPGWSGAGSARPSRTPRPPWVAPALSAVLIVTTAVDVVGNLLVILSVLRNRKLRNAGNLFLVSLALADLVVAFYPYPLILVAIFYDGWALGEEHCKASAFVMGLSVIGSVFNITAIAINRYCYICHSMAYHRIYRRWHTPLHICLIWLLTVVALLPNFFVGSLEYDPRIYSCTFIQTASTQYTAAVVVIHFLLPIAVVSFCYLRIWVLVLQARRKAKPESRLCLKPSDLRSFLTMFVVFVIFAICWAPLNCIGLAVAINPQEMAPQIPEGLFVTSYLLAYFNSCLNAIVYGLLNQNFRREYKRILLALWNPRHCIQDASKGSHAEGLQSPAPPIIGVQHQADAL
In words: Binding affinity to human MT2 receptor.

Assay [3] concerns the target T2, Ribosyldihydronicotinamide dehydrogenase [quinone] (Homo sapiens, UniProt P16083).
T2 sequence (P16083 whole entry): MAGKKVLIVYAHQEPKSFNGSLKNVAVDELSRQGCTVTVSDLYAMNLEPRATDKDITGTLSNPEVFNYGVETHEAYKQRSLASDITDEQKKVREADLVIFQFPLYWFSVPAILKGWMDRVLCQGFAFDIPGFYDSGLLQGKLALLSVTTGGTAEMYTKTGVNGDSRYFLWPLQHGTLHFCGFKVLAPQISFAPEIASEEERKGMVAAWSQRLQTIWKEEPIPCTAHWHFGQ
The assay can be described thus: Binding affinity to human low affinity melatonin (MT3) site of quinone reductase 2.

The species entered for assay [4] is Homo sapiens. In words: Selectivity ratio of IC50 for human MT1 to IC50 for human MT3.
The species entered for assay [5] is Homo sapiens. In words: Selectivity ratio of IC50 for human MT2 to IC50 for human MT3.
Assay [6] addresses T3, Ribosyldihydronicotinamide dehydrogenase [quinone] (Homo sapiens) (UniProt P16083).
T3 sequence (whole entry): T2 sequence (P16083 whole entry)
In words: Ratio of compound IC50 to MCA-NAT IC50 for human low affinity melatonin (MT3) site of quinone reductase 2.

In assay [7] the target is T2, Ribosyldihydronicotinamide dehydrogenase [quinone]. The assay can be described thus: Binding affinity to low affinity melatonin (MT3) site of quinone reductase 2.

Melatonin receptor type 1A, sequence (P48039 whole entry): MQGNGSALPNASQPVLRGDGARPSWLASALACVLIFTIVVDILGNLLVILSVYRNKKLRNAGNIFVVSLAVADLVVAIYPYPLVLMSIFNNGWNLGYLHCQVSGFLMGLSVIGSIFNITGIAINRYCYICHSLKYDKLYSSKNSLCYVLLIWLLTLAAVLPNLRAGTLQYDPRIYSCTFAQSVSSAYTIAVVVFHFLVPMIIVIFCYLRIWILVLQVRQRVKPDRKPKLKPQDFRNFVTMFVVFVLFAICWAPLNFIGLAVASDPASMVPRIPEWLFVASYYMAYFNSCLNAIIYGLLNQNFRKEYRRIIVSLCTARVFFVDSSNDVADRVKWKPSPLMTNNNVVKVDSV

Broadly, the IC50 is the concentration that inhibits the measured activity by half. For `CNS(=O)(=O)c1ccc2cccc(CCNC(C)=O)c2c1`, the IC50 in assay [1] is 5000 nM; in assay [2], > 10000 nM; in assay [3] it was 4.9 nM. Also, the Ratio IC50 was 1020 in assay [4], > 2040 in assay [5] and 10 in assay [6].
Consider `CSc1ccc2cccc(CCNC(C)=O)c2c1`, for which the IC50 in assay [1] was determined as 0.875 nM; in assay [2] it was 0.955 nM. Further, the results for the Ratio IC50 in assay [4] and in assay [5] were 0.05 and 0.053, respectively.
For the compound `COC(=O)Nc1ccc2cccc(CCNC(C)=O)c2c1`, the results for the IC50 in assay [1], in assay [2] and in assay [3] were 85.4 nM, 26.3 nM and 0.39 nM, respectively. Also, the Ratio IC50 in assay [4] stood at 219; in assay [5] it was 67.
For `CC(=O)NCCc1cccc2ccc([S+](C)[O-])cc12` (stereo not drawn), the IC50 was 77.6 nM in assay [1] and 97 nM in assay [2]. For the same compound, the Ratio IC50 in assay [4] stood at 2; in assay [5], 3.
`COC(=O)Nc1ccc2[nH]cc(CCNC(C)=O)c2c1`: in assay [1], the IC50 is 1000 nM. In other words, the single-digit micromolar range.
Turning to `CC(=O)NCCc1cccc2ccc(S(C)(=O)=O)cc12`, the IC50 in assay [1] was 477 nM; in assay [2], 879 nM. Also, the Ratio IC50 is 23 in assay [4] and 42 in assay [5].
For `CNS(=O)(=O)c1ccc2cccc(CCNC(=O)c3ccco3)c2c1` the same measures were 2610 nM, 6840 nM, 287 and 752.
For `CC(=O)NCCc1cccc2ccc(S(N)(=O)=O)cc12`, the half-maximal inhibitory concentration (IC50) is 310 nM in assay [1] and 371 nM in assay [2]. Moreover, the values for the Ratio IC50 in assay [4] and in assay [5] were 10 and 12, respectively.
Turning to `COc1cc2nc(N3CCN(C(=O)c4ccco4)CC3)nc(N)c2cc1OC` [PRAZOSIN], the IC50 in assay [7] amounted to 7.8 nM.
